Test results published in patent publication US20150329512A1, “METHOD AND PHARMACEUTICAL COMPOSITION FOR TREATING LUNG CANCER” (National Dong Hua University, priority 2014, published 2015).

What was measured:
A549 cells [1] = experiment: MTT assay, cell viability; type: cell-based, human
Experimental: (§1) A549 (lung cancer cell line, non-resistance) and Anti-Dox-A549 (lung cancer cell line with resistance to Doxorubicin) were maintained in DMEM supplemented with 10% fetal bovine serum (FBS, Gibco), pH 7.4, 37° C. and with continuous circulation of 5% CO2. The medium was changed every 2 days and the cells were trypsinized with trypsin/EDTA when reaching 80%-90% confluence.
(§2) A549 and Anti-Dox-A549 were treated by the following treatment (Table 1) for 24 or 48 hr for examining the effects of HCD, PG, and Dox on their viability.
(§3) Dox1is referred as Dox of 1 μM; Dox2.5 is referred as Dox of 2.5 μM; Dox5 is referred as Dox of 5 μM; Dox10 is referred as Dox of 10 μM; Dox100 is referred as Dox of 100 μM. HCD2.5 is referred as HCD of 2.5 μM; HCD10 is referred as HCD of 10 μM; HCD25 is referred as HCD of 25 μM; HCD50 is referred as HCD of 50 μM. PG2.5 is referred as PG of 2.5 μM; PG5 is referred as PG of 5 μM; PG10 is referred as PG of 10 μM; PG20 is referred as PG of 20 μM.
(§4) In this example, the effects of HCD, PG, and Dox on the viability of A549 and anti-Dox-A549 were examined. The MTT assay was employed for this purpose. The MTT (3-(4-,5-dimethylthiazol-2-yl)-2,5-diphenyltetrazolium bromide) assay is a common colorimetric method in the field for cell viability analysis. MTT (yellow tetrazolium salt) is reduced to a purple formazan by living cells and detection to the purple formazan can be calculated as the cell viability.
(§5) Briefly, cells (A549 or Anti-Dox-A549) were seeded in 96-well plate (7×10^3 cell per well) and incubated overnight (37° C., 5% CO2).

Anti-Dox-A549 cells [2] = experiment: MTT assay, cell viability; type: cell-based, human
Experimental: as §1, §2, §3, §4, §5

A549 cells [3] = experiment: Cell cycle analysis by flow cytometer (PI staining); type: cell-based, human; conditions: for G0/G1 (%) / G2/M (%) / S (%) / Sub G1 (%): A549
Experimental: (§6) The results of Example 2 in cell viability hinted the effects of HCD, PG, and Dox on arresting cell cycle. In this example, the phase of cell cycle of A549 cells and Anti-Dox-A549 cells after the treatment listed in Table 1 was determined by flow cytometer. Briefly, 7×10^4 cells per well were to inoculated in 12-wells plate and incubated overnight at 37° C., 5% CO2. Then, cells were treated according to the treatment listed in Table 1 by indicated time period. After treatment, cells were harvested by trypsin and fixed with 70% ethanol at −20° C. for at least 3 hr. The cells were washed in cold PBS twice and then incubated with 1 ml (v/v) staining solution (20 μg/m1 propidium iodide (PI), 0.1% Triton X-100, 0.2 mg/ml Rnase) at 37° C. for 30 minutes. Lastly, cells were analyzed by flow cytometer (Cytomics™ FC500, Backman, Fullerton, Calif., USA). Data from 10,000 cells were collected for each experimental group.

Anti-Dox-A549 cells [4] = experiment: as above; type: cell-based, human; conditions: for G0/G1 (%) / G2/M (%) / S (%) / Sub G1 (%): Anti-Dox-A549
Experimental: as §6

[5] = system: human lung cancer in lung of mice; experiment: Mouse model bearing human lung cancer in lung (A549 or Anti-Dox-A549 cells injected)
Experimental: The animal experiments were approved by the National Dong-Hwa University Animal Ethics Committee and the experimental protocols were used according to the “Guide for the Care and Use of Laboratory Animals” of National Dong-Hwa University. 1×10^7 of A549 cells or Anti-Dox-A549 cells were suspended in PBS to prepare cell suspensions. On day 0, C57/BL6 mice (6-8 weeks old, n=6) were weighted and anesthetic using pentobarbital (5 mg/ml). Then, the mice were injected with the cell suspension (1×10^7 cells per mouse) into the lung by IT. The injection was repeated every 7 days for 21 days. Another group of mice were injected with 10% EtOH as comparative group according to the same procedure set forth above.
After the establishment of human lung cancer in the experimental mice, the mice were maintained for one more week and then treated with HCD (0.0318 or 1.272 mg/kg body weight, in 10% ETOH with PBS), PG (0.1615 or 0.646 mg/kg body weight, in 10% ETOH with PBS) or 10% EtOH by IT injection (intrathecal injection) to the lung. The body weight was monitored every five days for thirty days. After thirty days, the mice were sacrificed and the lungs were checked for marker of human lung adenocarcinoma by H&E and IHC staining. The livers, kidneys and spleens of the mice were also examined to confirm the cytotoxicity of HCD and PG and to see if there was any metastasis happened.

[6] = pre-treatment (HCD especially 10 or 25 μM), then Dox 1 or 2.5 μM
[7] = mice treated by IT injection to the lung, after thirty days, data not shown

IC50 (A549 cells [1]; 24 hr treatment): ~50 µM | IC50 (Anti-Dox-A549 cells [2]; 24 hr treatment): ~50 µM
SMILES: CC1=CCCC2C1(C)CCC(C)C2(C)CCC1=CC(=O)OC1O (stereo not drawn) [HCD, 16-hydroxy-cleroda-3,13-dine-15,16-olide]
effect of pre-treatment on the effects of Dox on cell viability (A549 cells [1]; [6]): enhance the effects of Dox on viability | effect of pre-treatment on the effects of Dox on cell viability (Anti-Dox-A549 cells [2]; [6]): rescue the sensitivity of Anti-Dox-A549 cells to Dox | cell cycle effect compared with the control group (A549 cells [3]; A549 cells, Tables 3 and 5): increased cell cycle arrest at G2/M phase | cell cycle effect of pre-treatment and subsequent Dox (A549 cells [3]; A549 cells, Tables 9 and 11): increased sub G1 phase and arrested at G2/M phase | G0/G1 (%) (A549 cells [3]; HCD 2.5 μM, 24 hr): 77.3 ± 0.9% | G2/M (%) (A549 cells [3]; HCD 2.5 μM, 24 hr): 9.7 ± 0.9% | S (%) (A549 cells [3]; HCD 2.5 μM, 24 hr): 9.6 ± 0.5% | Sub G1 (%) (A549 cells [3]; HCD 2.5 μM, 24 hr): 1.0 ± 0.2% | G0/G1 (%) (A549 cells [3]; HCD 2.5 μM, 36 hr): 74.4 ± 2.6 % | G2/M (%) (A549 cells [3]; HCD 2.5 μM, 36 hr): 11.8 ± 0.9% | S (%) (A549 cells [3]; HCD 2.5 μM, 36 hr): 9.5 ± 0.4 % | Sub G1 (%) (A549 cells [3]; HCD 2.5 μM, 36 hr): 1.1 ± 0.1% | G0/G1 (%) (A549 cells [3]; HCD 2.5 μM, 48 hr): 80.4 ± 0.2% | G2/M (%) (A549 cells [3]; HCD 2.5 μM, 48 hr): 8.9 ± 0.1% | S (%) (A549 cells [3]; HCD 2.5 μM, 48 hr): 6.9 ± 0.1% | Sub G1 (%) (A549 cells [3]; HCD 2.5 μM, 48 hr): 1.8 ± 0.2% | G0/G1 (%) (A549 cells [3]; HCD 10 μM, 24 hr): 85.6 ± 6.9 % | G2/M (%) (A549 cells [3]; HCD 10 μM, 24 hr): 6.1 ± 0.5 % | S (%) (A549 cells [3]; HCD 10 μM, 24 hr): 3.9 ± 2.8 % | Sub G1 (%) (A549 cells [3]; HCD 10 μM, 24 hr): 1 ± 0.2% | G0/G1 (%) (A549 cells [3]; HCD 10 μM, 36 hr): 75.4 ± 1.8% | G2/M (%) (A549 cells [3]; HCD 10 μM, 36 hr): 10.0 ± 1.2% | S (%) (A549 cells [3]; HCD 10 μM, 36 hr): 10.7 ± 0.4 % | Sub G1 (%) (A549 cells [3]; HCD 10 μM, 36 hr): 1.4 ± 0.2% | G0/G1 (%) (A549 cells [3]; HCD 10 μM, 48 hr): 75.6 ± 1.8% | G2/M (%) (A549 cells [3]; HCD 10 μM, 48 hr): 11.2 ± 0.2 % | S (%) (A549 cells [3]; HCD 10 μM, 48 hr): 8.7 ± 0.2% | Sub G1 (%) (A549 cells [3]; HCD 10 μM, 48 hr): 1.8 ± 0.2% | G0/G1 (%) (A549 cells [3]; HCD 25 μM, 24 hr): 62.9 ± 3.3% | G2/M (%) (A549 cells [3]; HCD 25 μM, 24 hr): 22.8 ± 3.0 % | S (%) (A549 cells [3]; HCD 25 μM, 24 hr): 11.1 ± 1.3% | Sub G1 (%) (A549 cells [3]; HCD 25 μM, 24 hr): 1.5 ± 0.2% | G0/G1 (%) (A549 cells [3]; HCD 25 μM, 36 hr): 62.3 ± 1.3 % | G2/M (%) (A549 cells [3]; HCD 25 μM, 36 hr): 22.8 ± 1.5 % | S (%) (A549 cells [3]; HCD 25 μM, 36 hr): 9.2 ± 0.7 % | Sub G1 (%) (A549 cells [3]; HCD 25 μM, 36 hr): 2.7 ± 0.1 % | G0/G1 (%) (A549 cells [3]; HCD 25 μM, 48 hr): 61.7 ± 1.2 % | G2/M (%) (A549 cells [3]; HCD 25 μM, 48 hr): 22.7 ± 0.5 % | S (%) (A549 cells [3]; HCD 25 μM, 48 hr): 7.9 ± 1.3% | Sub G1 (%) (A549 cells [3]; HCD 25 μM, 48 hr): 1.9 ± 0.5 % | cell cycle effect compared with the control group (Anti-Dox-A549 cells [4]; Anti-Dox-A549 cells, Tables 2 and 4): increased cell cycle arrest at G2/M phase | cell cycle effect of pre-treatment and subsequent Dox (Anti-Dox-A549 cells [4]; Anti-Dox-A549 cells, Tables 8 and 10): increased sub G1 phase and arrested at G2/M phase | G0/G1 (%) (Anti-Dox-A549 cells [4]; HCD 2.5 μM, 24 hr): 68.2 ± 2.8% | G2/M (%) (Anti-Dox-A549 cells [4]; HCD 2.5 μM, 24 hr): 16.5 ± 1.8% | S (%) (Anti-Dox-A549 cells [4]; HCD 2.5 μM, 24 hr): 12.1 ± 0.8% | Sub G1 (%) (Anti-Dox-A549 cells [4]; HCD 2.5 μM, 24 hr): 0.63 ± 0.05% | G0/G1 (%) (Anti-Dox-A549 cells [4]; HCD 2.5 μM, 36 hr): 80.3 ± 0.6% | G2/M (%) (Anti-Dox-A549 cells [4]; HCD 2.5 μM, 36 hr): 9.6 ± 0.3% | S (%) (Anti-Dox-A549 cells [4]; HCD 2.5 μM, 36 hr): 7.4 ± 0.2% | Sub G1 (%) (Anti-Dox-A549 cells [4]; HCD 2.5 μM, 36 hr): 0.93 ± 0.2% | G0/G1 (%) (Anti-Dox-A549 cells [4]; HCD 2.5 μM, 48 hr): 82.1 ± 0.7% | G2/M (%) (Anti-Dox-A549 cells [4]; HCD 2.5 μM, 48 hr): 8.9 ± 0.7% | S (%) (Anti-Dox-A549 cells [4]; HCD 2.5 μM, 48 hr): 6.1 ± 0.3% | Sub G1 (%) (Anti-Dox-A549 cells [4]; HCD 2.5 μM, 48 hr): 1.56 ± 0.2% | G0/G1 (%) (Anti-Dox-A549 cells [4]; HCD 10 μM, 24 hr): 83.6 ± 1.4 % | G2/M (%) (Anti-Dox-A549 cells [4]; HCD 10 μM, 24 hr): 6.6 ± 0.55 % | S (%) (Anti-Dox-A549 cells [4]; HCD 10 μM, 24 hr): 7.0 ± 0.6% | Sub G1 (%) (Anti-Dox-A549 cells [4]; HCD 10 μM, 24 hr): 0.73 ± 0.05% | G0/G1 (%) (Anti-Dox-A549 cells [4]; HCD 10 μM, 36 hr): 75.8 ± 0.3 % | G2/M (%) (Anti-Dox-A549 cells [4]; HCD 10 μM, 36 hr): 11.8 ± 1.0 % | S (%) (Anti-Dox-A549 cells [4]; HCD 10 μM, 36 hr): 9.2 ± 0.4 % | Sub G1 (%) (Anti-Dox-A549 cells [4]; HCD 10 μM, 36 hr): 1 ± 0.2% | G0/G1 (%) (Anti-Dox-A549 cells [4]; HCD 10 μM, 48 hr): 82.2 ± 0.7% | G2/M (%) (Anti-Dox-A549 cells [4]; HCD 10 μM, 48 hr): 8.3 ± 0.2% | S (%) (Anti-Dox-A549 cells [4]; HCD 10 μM, 48 hr): 6.4 ± 0.3% | Sub G1 (%) (Anti-Dox-A549 cells [4]; HCD 10 μM, 48 hr): 1.76 ± 0.1% | G0/G1 (%) (Anti-Dox-A549 cells [4]; HCD 25 μM, 24 hr): 70.5 ± 2.7% | G2/M (%) (Anti-Dox-A549 cells [4]; HCD 25 μM, 24 hr): 19.3 ± 1.7 % | S (%) (Anti-Dox-A549 cells [4]; HCD 25 μM, 24 hr): 7.9 ± 0.8 % | Sub G1 (%) (Anti-Dox-A549 cells [4]; HCD 25 μM, 24 hr): 1.3 ± 0.1 % | G0/G1 (%) (Anti-Dox-A549 cells [4]; HCD 25 μM, 36 hr): 73.9 ± 2.7 % | G2/M (%) (Anti-Dox-A549 cells [4]; HCD 25 μM, 36 hr): 17.7 ± 1.9 % | S (%) (Anti-Dox-A549 cells [4]; HCD 25 μM, 36 hr): 5.4 ± 0.9% | Sub G1 (%) (Anti-Dox-A549 cells [4]; HCD 25 μM, 36 hr): 3.43 ± 0.2 % | G0/G1 (%) (Anti-Dox-A549 cells [4]; HCD 25 μM, 48 hr): 3.73 ± 1.6 % | G2/M (%) (Anti-Dox-A549 cells [4]; HCD 25 μM, 48 hr): 21.8 ± 2.4 % | S (%) (Anti-Dox-A549 cells [4]; HCD 25 μM, 48 hr): 11.2 ± 1.3 % | Sub G1 (%) (Anti-Dox-A549 cells [4]; HCD 25 μM, 48 hr): 27.2 ± 0.5 % | H&E and IHC staining of the lung ([5]; HCD 0.0318 or 1.272 mg/kg, PG 0.1615 or 0.646 mg/kg body weight, IT injection to the lung, after thirty days): less cell invention around blood vessels 1 and less cell accumulation 2 around the trachea 4 | body weight of the experimental mice ([5]; HCD 0.0318 or 1.272 mg/kg, PG 0.1615 or 0.646 mg/kg body weight, IT injection to the lung, monitored every five days for thirty days): did not show significantly change | injury of livers, kidneys and spleens (staining) [5, 7]: did not cause serious cytotoxicity | metastasis in livers, kidneys and spleens [5, 7]: no metastasis happened
